Measured values: paper PMC5681660, “Reduced hepatitis B and D viral entry using clinically applied drugs as novel inhibitors of the bile acid transporter NTCP” (Scientific Reports, 2017)
Where a name gives a salt, the structure may show the parent alone. Read-outs that look alike come from different tables or passages of the source.

Experiments:
human NTCP [1] = target: T1, human NTCP (Homo sapiens, UniProt Q14973); assay: Screening taurocholate uptake assay (96-well, [14C]taurocholate, 10 µM drug)
T1 sequence (Q14973 1-349): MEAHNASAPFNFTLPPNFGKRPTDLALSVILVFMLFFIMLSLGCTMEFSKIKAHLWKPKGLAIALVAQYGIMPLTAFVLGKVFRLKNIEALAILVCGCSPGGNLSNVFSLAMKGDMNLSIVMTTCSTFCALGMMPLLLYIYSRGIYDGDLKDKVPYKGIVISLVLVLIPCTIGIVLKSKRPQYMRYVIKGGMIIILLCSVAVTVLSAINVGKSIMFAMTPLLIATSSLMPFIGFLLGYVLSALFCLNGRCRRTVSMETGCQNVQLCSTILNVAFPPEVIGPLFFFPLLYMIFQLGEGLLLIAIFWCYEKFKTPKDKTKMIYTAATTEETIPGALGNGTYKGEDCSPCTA

human NTCP [2] = target: T1, human NTCP; assay: Screening fluorescent competitive Myrcludex B-FITC binding assay (96-well, 10 µM drug)
[3] = Prestwick library screen, 10 µM drug, B-score of taurocholate uptake
[4] = combined ranking from functional and binding assay B-scores
[5] = Prestwick library screen, 10 µM drug, B-score of Myrcludex B-FITC binding
[6] = combined ranking from functional and binding screening assays
[7] = screen, 10 µM drug, taurocholate uptake
[8] = screen, 10 µM drug, Myrcludex B-FITC binding
[9] = Prestwick library screen, taurocholate uptake, 10 µM drug
[10] = ranking score beside the functional and binding assay B-scores of the screen
[11] = Prestwick library screen, Myrcludex B-FITC binding, 10 µM drug

Molecule | B-score functional assay (human NTCP [1]; [3]) | Ranking score (human NTCP [1]; [4]) | B-score binding assay (human NTCP [2]; [5]) | Ranking score (human NTCP [1]; [6]) | B-score functional assay (human NTCP [1]; [7]) | B-score binding assay (human NTCP [2]; [8]) | B-score functional assay (human NTCP [1]; [9]) | Ranking score (human NTCP [1]; [10]) | B-score binding assay (human NTCP [2]; [11]) | further results
CN(C)CCOC1=Cc2ccccc2Sc2ccc(Cl)cc21 [Zotepine] | 0.249 | 950.167 | 1.26 | – | – | – | – | – | – | –
COc1ccc(C(=O)N2CCCC2=O)cc1 [Aniracetam] | – | – | – | 340.074 | -1.196 | -0.157 | – | – | – | –
CCOc1ccccc1OC(c1ccccc1)C1CNCCO1.CS(=O)(=O)O (stereo not drawn) [Reboxetine mesylate] | – | – | – | – | – | – | 1.175 | 814.737 | -0.028 | –
Cn1c(=O)c2c(ncn2CC(=O)O)n(C)c1=O [Acefylline] | 0.41 | 910.022 | 0.607 | – | – | – | – | – | – | –
c1ccc2c(c1)CCCC2C1=NCCN1 (stereo not drawn) [Tetrahydrozoline hydrochloride] | 0.112 | 952.65 | 1.943 | – | – | – | – | – | – | –
Cl.Clc1ccc(C(OCCN2CCCCC2)c2ccccc2)cc1 (stereo not drawn) [Cloperastine hydrochloride] | 2.21 | 1021.61 | 0.356 | – | – | – | – | – | – | –
CCCCNc1cc(C(=O)O)cc(S(N)(=O)=O)c1Oc1ccccc1 [Bumetanide] | 0.161 | 907.588 | 1.043 | – | – | – | – | – | – | –
Cc1c(N(C)C)c(=O)n(-c2ccccc2)n1C [Amidopyrine] | – | – | – | 343.366 | -0.111 | -1.103 | – | – | – | –
CC(Cc1ccccc1)NCCC(c1ccccc1)c1ccccc1 (stereo not drawn) [Prenylamine lactate] | 1.102 | 975.256 | 0.388 | – | – | – | – | – | – | –
COC(=O)Nc1nc2cc(C(=O)c3ccc(F)cc3)ccc2[nH]1 [Flubendazol] | – | – | – | – | – | – | 1.185 | 683.74 | -0.335 | –
COc1cc2nc(N3CCN(C(=O)C4COc5ccccc5O4)CC3)nc(N)c2cc1OC (stereo not drawn) [Doxazosin mesylate] | – | – | – | – | – | – | – | – | – | B-score functional assay (human NTCP [1]): -0.292; Ranking score (human NTCP [1]): 599.787; B-score binding assay (human NTCP [2]): 0.211
CN1CCCCC1CCN1c2ccccc2Sc2ccc([S+](C)[O-])cc21 (stereo not drawn) [Mesoridazine besylate] | 2.438 | 892.285 | 0.002 | – | – | – | – | – | – | –
CCCNC(=O)NS(=O)(=O)c1ccc(Cl)cc1 [Chlorpropamide] | – | – | – | – | – | – | 1.589 | 766.984 | -0.165 | –
NS(=O)(=O)c1cc2c(cc1Cl)NC(C(Cl)Cl)NS2(=O)=O (stereo not drawn) [Trichlormethiazide] | 0.593 | 921.314 | 0.486 | – | – | – | – | – | – | –
COC(=O)Nc1nc2ccc(C(=O)c3ccccc3)cc2[nH]1 [Mebendazole] | – | – | – | 327.443 | -0.824 | -0.531 | – | – | – | –
N[C@@H](Cc1cc(I)c(Oc2cc(I)c(O)c(I)c2)c(I)c1)C(=O)O [Thyroxine (L)] | – | – | – | 435.061 | 0.005 | -0.765 | – | – | – | –
O=C(Nc1ccccc1)OCC(CN1CCCCC1)OC(=O)Nc1ccccc1 (stereo not drawn) [Diperodon hydrochloride] | – | – | – | – | – | – | 0.512 | 772.884 | 0.002 | –
CCC[C@@H]1C[C@@H](C(=O)N[C@@H]([C@H]2O[C@H](SC)[C@H](O)[C@@H](O)[C@H]2O)[C@@H](C)O)N(C)C1 [Lincomycin hydrochloride] | 0.903 | 960.458 | 0.419 | – | – | – | – | – | – | –
CC(C)NC[C@@H](O)c1ccc(O)c(O)c1.O=C(O)C(O)C(O)C(=O)O [(+)-Isoproterenol (+)-bitartrate salt] | – | – | – | – | – | – | 2.072 | 708.011 | -0.368 | –
C[N+]1(C)[C@@H]2CC[C@H]1C[C@@H](OC(=O)C(CO)c1ccccc1)C2 (stereo partly drawn) [Methylatropine nitrate] | – | – | – | 357.004 | -0.076 | -1.066 | – | – | – | –
COc1cccc2c1C(=O)c1c(O)c3c(c(O)c1C2=O)C[C@@](O)(C(C)=O)C[C@@H]3O[C@H]1C[C@H](N)[C@H](O)[C@H](C)O1 [Daunorubicin hydrochloride] | – | – | – | – | – | – | -0.357 | 740.439 | 6.093 | –
Cc1cccc(C)c1N=C1NCCCS1 [Xylazine] | – | – | – | – | – | – | – | – | – | B-score functional assay (human NTCP [1]): -0.697; Ranking score (human NTCP [1]): 404.611; B-score binding assay (human NTCP [2]): -0.164
CNC1(C)C2CCC(C2)C1(C)C (stereo not drawn) [Mecamylamine hydrochloride] | – | – | – | 340.338 | -0.591 | -0.663 | – | – | – | –

Molecule | B-score functional assay (human NTCP [1]; [3]) | Ranking score (human NTCP [1]; [4]) | B-score binding assay (human NTCP [2]; [5]) | Ranking score (human NTCP [1]; [6]) | B-score functional assay (human NTCP [1]; [7]) | B-score binding assay (human NTCP [2]; [8]) | B-score functional assay (human NTCP [1]; [9]) | Ranking score (human NTCP [1]; [10]) | B-score binding assay (human NTCP [2]; [11]) | further results
CCOC(=O)c1cncn1[C@H](C)c1ccccc1 [Etomidate] | 5.522 | 852.333 | -0.068 | – | – | – | – | – | – | –
Nc1cc(-c2ccncc2)c[nH]c1=O [Amrinone] | – | – | – | 350.268 | -1.236 | -0.056 | – | – | – | –
CCn1cc(C(=O)O)c(=O)c2cc(F)c(N3CCNCC3)nc21 [Enoxacin] | 3.277 | 1072.03 | 0.523 | – | – | – | – | – | – | –
C=CC(N)CCC(=O)O (stereo not drawn) [Vigabatrin] | – | – | – | – | – | – | -0.08 | 730.208 | 0.671 | –
CCCCC(=O)O[C@H]1CC[C@H]2[C@@H]3CCc4cc(O)ccc4[C@H]3CC[C@]12C [Estradiol Valerate] | – | – | – | – | – | – | -0.153 | 776.511 | 1.969 | –
Cc1ncc([N+](=O)[O-])n1CCO [Metronidazole] | 1.996 | 878.042 | 0 | – | – | – | – | – | – | –
CCCc1nn(C)c2c(=O)[nH]c(-c3cc(S(=O)(=O)N4CCN(C)CC4)ccc3OCC)nc12 [Sildenafil] | – | – | – | – | – | – | 0.011 | 755.751 | 0.383 | –
Cn1nnc2c(C(N)=O)ncn2c1=O [Temozolomide] | 0.533 | 906.245 | 0.415 | – | – | – | – | – | – | –
CO[C@@H]1[C@@H](OC(N)=O)[C@@H](O)[C@H](Oc2ccc3c([O-])c(NC(=O)c4ccc(O)c(CC=C(C)C)c4)c(=O)oc3c2C)OC1(C)C.[Na+] [Novobiocin sodium salt] | 1.027 | 942.881 | 0.269 | – | – | – | – | – | – | –
CCCNCC(O)COc1ccccc1C(=O)CCc1ccccc1 (stereo not drawn) [Propafenone hydrochloride] | – | – | – | – | – | – | -0.211 | 771.984 | 2.716 | –
CNNCc1ccc(C(=O)NC(C)C)cc1 [Procarbazine hydrochloride] | – | – | – | 345.534 | -0.792 | -0.424 | – | – | – | –
CCOC(=O)/C=C(C)/C=C/C=C(C)/C=C/c1c(C)cc(OC)c(C)c1C [Etretinate] | – | – | – | – | – | – | 0.504 | 712.48 | -0.079 | –
COc1cccc2c1C(=O)c1c(O)c3c(c(O)c1C2=O)C[C@@](O)(C(=O)CO)C[C@@H]3O[C@H]1C[C@H](N)[C@@H](O)[C@H](C)O1 [Epirubicin hydrochloride] | – | – | – | – | – | – | – | – | – | B-score functional assay (human NTCP [1]): 0.079; Ranking score (human NTCP [1]): 915.844; B-score binding assay (human NTCP [2]): 1.555
Bacitracin | 1.013 | 1026.66 | 0.785 | – | – | – | – | – | – | –
COc1ccc(CN(CCN(C)C)c2ccccn2)cc1 [Pyrilamine maleate] | – | – | – | 458.048 | -0.86 | 0.121 | – | – | – | –
CCN1CC(CCN2CCOCC2)C(c2ccccc2)(c2ccccc2)C1=O.Cl (stereo not drawn) [Doxapram hydrochloride] | – | – | – | 446.058 | 0.629 | -1.194 | – | – | – | –
[H]/N=C(/N)NS(=O)(=O)c1ccc(N)cc1 [Sulfaguanidine] | – | – | – | – | – | – | -0.516 | 669.134 | 2.333 | –
COc1cc([S+](C)[O-])ccc1-c1nc2ncccc2[nH]1 (stereo not drawn) [Sulmazole] | – | – | – | 402.209 | 0.016 | -0.978 | – | – | – | –
CCN(CC)CCCC(C)Nc1c2ccc(Cl)cc2nc2ccc(OC)cc12.Cl.Cl (stereo not drawn) [Quinacrine dihydrochloride hydrate] | – | – | – | 399.375 | -2.093 | 7.101 | – | – | – | –
CC1(C)OC(=O)NC1=O [Dimethadione] | – | – | – | 328.253 | 0.349 | -1.829 | – | – | – | –
O=c1n(CCCN2CCN(c3cccc(Cl)c3)CC2)nc2ccccn12 [Trazodone hydrochloride] | – | – | – | – | – | – | 0.169 | 707.824 | -0.001 | –
CO[C@@]1(NC(=O)C2SC(=C(C(N)=O)C(=O)O)S2)C(=O)N2C(C(=O)O)=C(CSc3nnnn3C)CS[C@@H]21 (stereo partly drawn) [Cefotetan] | – | – | – | – | – | – | 4.862 | 655.496 | -0.646 | –
CC(=O)OCC(=O)NCCCOc1cccc(CN2CCCCC2)c1 [Roxatidine Acetate HCl] | – | – | – | 297.686 | -2.305 | 0.239 | – | – | – | –
